Consider 32 compounds from paper PMC7587356, “High-Throughput Screening for Inhibitors of the SARS-CoV-2 Protease Using a FRET-Biosensor” (Molecules, 2020).

Each structure is given as a SMILES string. Counter-ions that a name gives are not always drawn. Like-named read-outs stand apart in the source and are kept apart here.

This experiment concerns the target SARS-CoV-2 3CLpro (Severe acute respiratory syndrome coronavirus 2, UniProt P0DTD1). In words: biochemical. In kind it is biochemical. The arrangement: Replicate_1 / Replicate_2 / mean / mean (LOPAC_screen_w_protease): unit not given here. Particulars: for inhibition at 5 µM: 4 h.
Setting [1] is: LOPAC1280 primary screen with protease, 5 µM compound, mean of the two replicates.
Where [2] appears, read: LOPAC1280 primary screen with protease, 5 µM compound, replicate 1.
[3] abbreviates: LOPAC1280 primary screen with protease, 5 µM compound, replicate 2.
Where [4] appears, read: LOPAC1280 primary screen with protease, 5 µM compound, mean of two replicates.
Where [5] appears, read: sheet LOPAC_screen_w_protease, LOPAC1280 primary screen at 5 µM, with protease, mean of the two replicates.
Where [6] appears, read: sheet LOPAC_screen_w_protease, LOPAC1280 primary screen at 5 µM, with protease, replicate 1.
Where [7] appears, read: sheet LOPAC_screen_w_protease, LOPAC1280 primary screen at 5 µM, with protease, replicate 2.
Where [8] appears, read: sheet LOPAC_screen_w_protease, primary screen with protease, mean of two replicates.
The mark [9] stands for this setting: sheet LOPAC_screen_w_protease, primary screen with protease, replicate 1.
The mark [10] stands for this setting: sheet LOPAC_screen_w_protease, primary screen with protease, replicate 2.
Setting [11] is: sheet LOPAC_screen_w_protease, primary screen with protease, 5 µM, mean of two replicates.
Setting [12] is: sheet LOPAC_screen_w_protease, primary screen with protease, 5 µM, replicate 1.
[13] abbreviates: sheet LOPAC_screen_w_protease, primary screen with protease, 5 µM, replicate 2.
The mark [14] stands for this setting: sheet LOPAC_screen_w_protease, primary screen at 5 µM, mean of two replicates.
[15] abbreviates: sheet LOPAC_screen_w_protease, primary screen at 5 µM, replicate 1.
Where [16] appears, read: sheet LOPAC_screen_w_protease, primary screen at 5 µM, replicate 2.
The mark [17] stands for this setting: sheet LOPAC_screen_w_protease, primary screen with protease, compound at 5 µM, mean of two replicates.
Setting [18] is: sheet LOPAC_screen_w_protease, primary screen with protease, compound at 5 µM, replicate 1.
The mark [19] stands for this setting: sheet LOPAC_screen_w_protease, primary screen with protease, compound at 5 µM, replicate 2.
[20] abbreviates: sheet LOPAC_screen_w_protease, LOPAC1280 at 5 µM, mean of two replicates.
[21] abbreviates: sheet LOPAC_screen_w_protease, LOPAC1280 at 5 µM, replicate 1.
Setting [22] is: sheet LOPAC_screen_w_protease, LOPAC1280 at 5 µM, replicate 2.

Take `N.N.N.N.N.N.N.N.N.N.N.N.N.N.[Cl-].[Cl-].[Cl-].[Cl-].[Cl-].[Cl-].[O-2].[O-2].[Ru+3].[Ru+3].[Ru+4]` [Ruthenium red]: the “mean (LOPAC_screen_w_protease)” value under setting [1] came out at 1.824. The “Replicate_1 (LOPAC_screen_w_protease)” value under setting [2] is 2.607. In addition, the “Replicate_2 (LOPAC_screen_w_protease)” value under setting [3] is on record as 1.042.
For the compound `CC(C)Cc1ccc([C@H](C)C(=O)O)cc1` [S(+)-Ibuprofen], under setting [4], the “mean (LOPAC_screen_w_protease)” value was 1.7003. Besides, under setting [2], the “Replicate_1 (LOPAC_screen_w_protease)” value was determined as 1.122. Also, the “Replicate_2 (LOPAC_screen_w_protease)” value under setting [3] is 2.279.
As for `CCCN1CCO[C@@H]2c3cc(O)ccc3OC[C@H]21.Cl` [S(+)-PD 128,907 hydrochloride], the mean under setting [5] is given as 0.4405. Besides, the Replicate_1 under setting [6] is 0.5719. Under setting [7], this compound yielded a Replicate_2 of 0.3091.
`CCN1CCC[C@H]1CNC(=O)c1c(OC)ccc(I)c1O` [S(-)-IBZM] returned a mean under setting [8] of 2.422. Moreover, the Replicate_1 under setting [9] was found to be 3.86. Under setting [10], this compound came in with a Replicate_2 of 0.9843.
In the case of `CC(C)NCC(O)COc1cccc2[nH]ccc12` (stereo not drawn) [S(-)-Pindolol], the “mean (LOPAC_screen_w_protease)” value under setting [1] was 1.809. Further, under setting [2], the “Replicate_1 (LOPAC_screen_w_protease)” value was determined as 1.519. For the same compound, under setting [3], the “Replicate_2 (LOPAC_screen_w_protease)” value amounted to 2.1. Further, under setting [11], the mean turned out to be 0.4162. Under setting [12], this compound had a Replicate_1 of 1.799. Under setting [13], this compound came in with a Replicate_2 of -0.9667.
In the case of `CC(C)(C)NC[C@H](O)COc1nsnc1N1CCOCC1.O=C(O)/C=C\C(=O)O` [S(-)-Timolol maleate], the mean under setting [11] is on record as 0.01613. The Replicate_1 under setting [12] stood at 1.756. Further, the Replicate_2 under setting [13] is on record as -1.724.
The compound `N[C@@H](Cn1ccc(=O)[nH]c1=O)C(=O)O` [S(-)-Willardiine] yielded a mean under setting [5] of 0.8515. The compound also displayed a Replicate_1 under setting [6] of 0.8129. The Replicate_2 under setting [7] is given as 0.89.
With `Brc1ccc([C@H]2CN3CCSC3=N2)cc1.O=C(O)C(=O)O` [S(-)-p-Bromotetramisole oxalate], the mean under setting [11] was -0.07526. For the same compound, under setting [12], the Replicate_1 is 0.5493. Under setting [13], the Replicate_2 is given as -0.6998.
In the case of `N[C@@H](Cn1cc(I)c(=O)[nH]c1=O)C(=O)O` [S-5-Iodowillardiine], under setting [14], the “mean (LOPAC screen with protease)” value amounted to 6.582. For the same compound, the “Replicate_1 (LOPAC screen with protease)” value under setting [15] is listed as 5.993. Also, under setting [16], the “Replicate_2 (LOPAC screen with protease)” value turned out to be 7.171.
For the compound `Nc1nc(SCc2ccc([N+](=O)[O-])cc2)c2ncn([C@@H]3O[C@H](CO)[C@@H](O)[C@H]3O)c2n1` [S-(4-Nitrobenzyl)-6-thioguanosine], the mean under setting [11] is given as -0.2707. Besides, the Replicate_1 under setting [12] came out at 0.3471. Moreover, under setting [13], the Replicate_2 is recorded as -0.8885.
In the case of `O=[N+]([O-])c1ccc(CSc2ncnc3c2ncn3[C@@H]2O[C@H](CO)[C@@H](O)[C@H]2O)cc1` [S-(4-Nitrobenzyl)-6-thioinosine], the mean (sheet LOPAC_screen_w_protease, LOPAC1280 primary screen with protease, 5 µM compound, mean of the two replicates) was found to be 4.84. This compound also showed a Replicate_1 (sheet LOPAC_screen_w_protease, LOPAC1280 primary screen with protease, 5 µM compound, replicate 1) of 5.452. The compound further gave a Replicate_2 (sheet LOPAC_screen_w_protease, LOPAC1280 primary screen with protease, 5 µM compound, replicate 2) of 4.228.
In the case of `C[C@@](Cc1ccc(O)c(O)c1)(NN)C(=O)O` [S-(-)-Carbidopa], under setting [14], the “mean (LOPAC screen with protease)” value came out at 17.4897. The “Replicate_1 (LOPAC screen with protease)” value under setting [15] came out at 19.273. Further, the “Replicate_2 (LOPAC screen with protease)” value under setting [16] is on record as 15.7065.
Consider `CCc1cc(Cl)c(O)c(C(=O)NC[C@@H]2CCCN2CC)c1OC.Cl` [S-(-)-Eticlopride hydrochloride], for which the “mean (LOPAC_screen_w_protease)” value under setting [1] was determined as 2.005. Besides, the “Replicate_1 (LOPAC_screen_w_protease)” value under setting [2] turned out to be 2.376. In addition, under setting [3], the “Replicate_2 (LOPAC_screen_w_protease)” value is 1.635.
The compound `[N-]=[N+]=Nc1ccc(C(=O)CSC[C@H](NC(=O)CC[C@H](N)C(=O)O)C(=O)NCC(=O)O)cc1` [S-(p-Azidophenacyl)glutathione] displayed a mean under setting [17] of 2.647. This compound registered a Replicate_1 under setting [18] of 2.672. This compound came in with a Replicate_2 under setting [19] of 2.621.
`Br.CCSC(=N)N` [S-Ethylisothiourea hydrobromide] showed a mean under setting [20] of 1.099. For the same compound, under setting [21], the Replicate_1 is on record as 2.674. This compound also showed a Replicate_2 under setting [22] of -0.4768.
Consider `CSC(N)=NCCC[C@H](N)C(=O)O` [S-Methyl-L-thiocitrulline acetate], for which the inhibition at 5 µM runs as follows: (sheet LOPAC_screen_w_protease, primary screen with protease, compound at 5 µM, mean of two replicates, read-out: mean) 2.62%; (sheet LOPAC_screen_w_protease, primary screen with protease, compound at 5 µM, replicate 1, read-out: Replicate_1) 2.21%; (sheet LOPAC_screen_w_protease, primary screen with protease, compound at 5 µM, replicate 2, read-out: Replicate_2) 3.04%.
Consider `Cl.Cn1ccc2cc(NC(=O)Nc3cccnc3)ccc21` [SB 200646 hydrochloride], for which the mean under setting [17] was 2.882. For the same compound, under setting [18], the Replicate_1 is 2.958. The compound also showed a Replicate_2 under setting [19] of 2.805.
Take `Oc1ccc(-c2nc(-c3ccncc3)c(-c3ccc(F)cc3)[nH]2)cc1` [SB 202190]: the inhibition at 5 µM was determined as 2.45% (sheet LOPAC_screen_w_protease, primary screen with protease, mean of two replicates, read-out: mean); 1.31% (sheet LOPAC_screen_w_protease, primary screen with protease, replicate 1, read-out: Replicate_1); 3.6% (sheet LOPAC_screen_w_protease, primary screen with protease, replicate 2, read-out: Replicate_2).
On to `O=C(OCCN1CCCCC1)c1c[nH]c2ccccc12` [SB 203186], for which, under setting [17], the mean was 2.639. Besides, the Replicate_1 under setting [18] is 2.947. Besides, the Replicate_2 under setting [19] is reported as 2.331.
In the case of `CCCCN1CCC(COC(=O)c2cc(Cl)c(N)c3c2OCCO3)CC1.Cl` [SB 204070 hydrochloride], the mean under setting [8] was determined as 2.545. Under setting [9], this compound returned a Replicate_1 of 1.507. In addition, the Replicate_2 under setting [10] amounted to 3.5833.
Regarding `Cc1cc(NC(=O)Nc2ccc3c(ccn3C)c2)sn1` [SB 204741], under setting [11], the mean turned out to be 0.4215. Under setting [12], the Replicate_1 worked out at 0.3793. The Replicate_2 under setting [13] was determined as 0.4638.
Compound `CC#CCOC(=O)c1c(C)nc2sc3c(c2c1N)CCC(O)C3` (stereo not drawn) [SB 205384] yielded a mean (sheet LOPAC_screen_w_protease, LOPAC1280 primary screen at 5 µM, with protease, mean of two replicates) of -1.612. This compound also came in with a Replicate_1 under setting [6] of 2.126. For the same compound, the Replicate_2 under setting [7] was -5.349.
`Cn1ccc2cc3c(cc21)CCN3C(=O)Nc1cccnc1` [SB 206553 hydrochloride] displayed a mean under setting [17] of 2.821. Moreover, the Replicate_1 under setting [18] is on record as 3.909. The compound further registered a Replicate_2 under setting [19] of 1.733.
For `Cn1cc(C2=C(c3ccc(Cl)cc3Cl)C(=O)NC2=O)c2ccccc21` [SB 216763], the inhibition at 5 µM reads like this: (sheet LOPAC_screen_w_protease, primary screen at 5 µM, mean of two replicates, read-out: mean (LOPAC screen with protease)) 6.45%; (sheet LOPAC_screen_w_protease, primary screen at 5 µM, replicate 1, read-out: Replicate_1 (LOPAC screen with protease)) 5.91%; (sheet LOPAC_screen_w_protease, primary screen at 5 µM, replicate 2, read-out: Replicate_2 (LOPAC screen with protease)) 6.98%.
`COC(=O)[C@H](NC(=O)c1cc(-c2ccccc2)nc2ccccc12)c1ccccc1` [SB 218795]: the mean under setting [5] was found to be 0.7338. In addition, under setting [6], the Replicate_1 was determined as 2.781. This compound also displayed a Replicate_2 under setting [7] of -1.313.
`CC[C@H](NC(=O)c1c(C)c(-c2ccccc2)nc2ccccc12)c1ccccc1` [SB 222200]: the inhibition at 5 µM was found to be 1.71% (LOPAC1280 primary screen with protease, 5 µM compound, replicate 1, read-out: Replicate_1 (LOPAC_screen_w_protease)) and 1.28% (LOPAC1280 primary screen with protease, 5 µM compound, replicate 2, read-out: Replicate_2 (LOPAC_screen_w_protease)). Also, the “mean (LOPAC_screen_w_protease)” value under setting [4] is reported as 1.495.
Under setting [20], `Cc1nc(-c2ccc(-c3ccc(C(=O)N4CCc5cc6c(cc54)C4(CCN(C)CC4)CO6)cc3)c(C)c2)no1.Cl` [SB 224289 hydrochloride] registered a mean of 1.002. This compound also came in with a Replicate_1 under setting [21] of 2.397. The compound further returned a Replicate_2 under setting [22] of -0.3926.
Take `COc1cc2c(cc1C(F)(F)F)N(C(=O)Nc1cc(F)cc(-c3cccnc3)c1)CC2` [SB 228357]: the mean under setting [8] came to 2.5367. Further, the Replicate_1 under setting [9] is reported as 3.509. This compound displayed a Replicate_2 under setting [10] of 1.565.
Regarding `CC1CCN(CC[C@H]2CCCN2S(=O)(=O)c2cccc(O)c2)CC1.Cl` [SB 269970 hydrochloride], the “mean (LOPAC_screen_w_protease)” value under setting [1] is given as 2.103. In addition, under setting [2], the “Replicate_1 (LOPAC_screen_w_protease)” value is listed as 1.356. For the same compound, under setting [3], the “Replicate_2 (LOPAC_screen_w_protease)” value was determined as 2.851.
Take `COc1cccc(NC(=O)/C=C/c2ccc(Cl)cc2)c1` [SB-366791]: under setting [8], the mean is recorded as 2.336. In addition, the Replicate_1 under setting [9] amounted to 3.003. This compound also registered a Replicate_2 under setting [10] of 1.669.
Take `CC(=O)NNC(=O)N1Cc2ccccc2Oc2ccc(Cl)cc21` [SC 19220]: the mean under setting [11] was found to be 0.1868. This compound came in with a Replicate_1 under setting [12] of 1.1062. Under setting [13], this compound yielded a Replicate_2 of -0.7326.
With `Cc1nc2c(OCc3ccccc3)cccn2c1CC#N` [SCH-28080], the mean under setting [8] is 2.443. The compound further returned a Replicate_1 under setting [9] of 2.6463. The compound also had a Replicate_2 under setting [10] of 2.24.
